In patent publication US12595259B2, “Aminopyridine compound” (ZHUHAI UNITED LABORATORIES CO., LTD., priority 2020, dated 2026):

Assay: Experiment of aldehyde-trapping ability in vitro
Conditions: for percentage content of the complex product (HPLC, 254 nm): nonanal 1.0 eq, compound 1.0 eq, 20 to 23° C.
Protocol: Objective: xerophthalmia is caused by inflammations inside the eye, and these inflammations would produce some aldehydes in vivo. If these aldehydes are not eliminated in time, the symptoms of inflammations would be accelerated and worsen the xerophthalmia. In this experiment, by simulating the in vivo environment, a relatively preferred compound was selected according to the complexing ability of the drug and the aldehyde in vivo.
Process: sulfobutyl-B-cyclodextrin (310 mg) was dissolved in phosphate buffer (1.25 mL) to prepare a solution.
Nonanal (5.0 mg, 32 μmol, 1.0 eq) and glyceryl trioleate (300 mg) were added into a reaction flask at room temperature. After the above prepared solution was added thereto, linoleic acid (300 mg) was then added thereto, and finally a dimethyl sulfoxide (0.15 mL) solution containing the compound of the present disclosure (32 μmol, 1.0 eq) was added thereto. The reaction solution was reacted at 20 to 23° C.
After stirring and reacting for 10 minutes, 100 minutes, 200 minutes, and 300 minutes, respectively, the reaction solution was allowed to stand for 2 minutes, layered and then sampled for high performance liquid detection.
Sampling method: 25 μL of the upper emulsion layer and 50 μL of the lower aqueous phase were sampled with a pipette, and diluted with 1 mL of methanol.
Nonanal has weak ultraviolet absorption at a wavelength of 254 nm, and has little influence on the content of complexation product as a whole. Therefore, the percentage content of the complexed compound at 254 nm in high performance liquid phase was compared to observe the ability of the compound to trap and complex aldehyde.
The HPLC analysis method is shown in Table 1 below, which is XBRIGE 2.5 μm, 3.0*100 mm 5-95CD_XBEH_12 min_0.8.lcm

SMILES: CC(C)(O)c1ncc(-c2nc(C(C)(C)O)c(N)s2)cc1N [Compound 1]
- Area under the curve AUC (complex product content against time, 10 to 300 minutes): 1874 min. conversion rate
- Slope (linear fit of complex product content against time, 10 to 300 minutes): 0.0394
- percentage content of the complex product (HPLC, 254 nm) (reaction time 10 minutes): 1.095
- percentage content of the complex product (HPLC, 254 nm) (reaction time 100 minutes): 4.751
- percentage content of the complex product (HPLC, 254 nm) (reaction time 200 minutes): 8.764
- percentage content of the complex product (HPLC, 254 nm) (reaction time 300 minutes): 12.496
